Data: patent publication US20110281762A1, “High throughput screening for anaerobic microorganisms” (priority 2010, published 2011)

Assays:
[1] = test system: Bacteroides thetaiotaomicron (Bt); experiment: Growth of Bt in minimal medium with a fructose-based carbohydrate as only carbon source; format: cell-based; conditions: substance as only carbon and energy source; for doubling time: Bt
Text: Bt upregulates its putative fructan PUL when grown on fructose-containing carbohydrates We inoculated minimal medium containing specific fructose-based carbohydrates as the only carbon and energy source with Bt to test if the bacterium is competent to grow on fructans. Bt grew on a broad range of fructose-based glycans, including free fructose, sucrose, levan (high MW fructose polymer with predominantly β2-6-linkages), and fructo-oligosaccharides (FOS; short-chain β2-1 polymers of 2-10 fructose units) (FIG. 1C). However, Bt grew poorly on inulin (β2-1 fructose polymer with an average degree of polymerization of ˜25), with growth only apparent three days after inoculation. Doubling times on simple monosaccharides and disaccharide were similar to one another.
(§1) Culturing bacteria. Bacteria were cultured in TYG and MM as described previously. The following bacteria were used: Bt (VPI-5482), B. caccae (ATCC-43185), B. ovatus (ATCC-8483), B. fragilis (NCTC-9343), B. uniformis (ATCC-8492), and B. vulgatus (ATCC-8482). Growth curves in MM were obtained using a Powerwave (Biotek) reading OD600 every 30 min from anaerobic cultures at 37° C.

Bt-ΔBT1754 = experiment: Growth of isogenic mutant Bt-ΔBT1754 in minimal media; format: cell-based, Bacteroides thetaiotaomicron; conditions: fructose-based minimal media
Text: The hybrid two-component system BT1754 is required for efficient fructan utilization by Bt. We assessed the ability of an isogenic mutant of Bt lacking the BT1754 gene to grow in a panel of fructose-based minimal media (MM) to test if upregulation of the PUL was dependent upon the HTCS signaling sensor. An in-frame, unmarked deletion of BT1754 was constructed using a standard counter-selectable allele-exchange procedure. […] Complementation of this mutant was achieved by introducing the genomic fragment containing BT1754 and its 5′ intergenic upstream promoter region in trans.
as §1

[2] = test system: all six Bacteroides species; experiment: Growth of six Bacteroides species on fructose-based glycans; format: cell-based
Text: (§2) In all six Bacteroides species, the HTCS is adjacent to a predicted fructokinase, a putative inner membrane monosaccharide importer, and GH32-family glycoside hydrolases. In each genome, except that of B. vulgatus, the syntenic regions also contain a susC/susD homologous pair. […] All Bacteroides species tested, except B. vulgatus, were able to grow efficiently using one of the long-chain fructans, inulin or levan. The inability of B. vulgatus to grow on long-chain fructans is consistent with the absence of a susC/susD-like pair within its locus. B. caccae, B. ovatus, B. fragilis and B. uniformis can utilize inulin with efficiency similar to their use of glucose. This contrasts with Bt inulin use, which is only observed after three days (FIG. 5). Bt was the only species tested able to use levan, which was particularly striking when considering the overall similarity in PUL structure between Bt, B. caccae, and B. ovatus.
as §1

B. caccae = experiment: Growth on long-chain fructan; format: cell-based; conditions: efficiency similar to use of glucose
Text: as §2, §1

B. fragilis = experiment: Growth on long-chain fructan; format: cell-based; conditions: efficiency similar to use of glucose
Text: as §2, §1

B. ovatus = experiment: Growth on long-chain fructan; format: cell-based; conditions: efficiency similar to use of glucose
Text: as §2, §1

B. uniformis = experiment: Growth on long-chain fructan; format: cell-based; conditions: efficiency similar to use of glucose
Text: as §2, §1

B. vulgatus = experiment: Growth on long-chain fructan; format: cell-based
Text: as §2, with “Bt was the only species tested able to use levan, which was particularly striking when considering the overall similarity in PUL structure between Bt, B. caccae, and B. ovatus.” left out
Genomic content of Bacteroides species predicts changes in microbiota composition induced by an inulin-based diet. The differences in ability to utilize fructans between the Bacteroides species implies that the relative success of a species within a gut ecosystem may be determined, in part, by the abundance and type of fructan in the host diet. […] We constructed defined two-member communities of Bacteroides species within the intestines of gnotobiotic mice to test how model microbiotas respond in vivo to dietary inulin, which, unlike levan, is available in pure form in quantities sufficient to conduct such a study. […]

Bt and B. caccae = experiment: Dietary inulin in gnotobiotic mice bi-associated with Bt and B. caccae, relative fecal proportion by qPCR; format: in vivo, germ-free Swiss-Webster mice
Text: (§3) Two groups of 8-12-week old, germ-free mice were colonized with equivalent quantities (10^8 colony forming units, CFU) of Bt and B. caccae or Bt and B. vulgatus. Each mouse was maintained on a standard polysaccharide-rich diet for the first 7 days of colonization and then switched to a diet in which the sole polysaccharide was inulin (10% w/w) for an additional 14 days. Mice were individually housed throughout the experiment to ensure no cross inoculation could occur and bedding was changed every two days. Total bacterial colonization density was determined by assessing the CFUs in feces over 21 days. The change in each species' relative abundance before and after dietary inulin supplementation was assessed using species-specific primers in a quantitative PCR assay.
In the previous experiment, inulin was the sole polysaccharide in the diet. We wondered whether we would observe the same inulin-induced increase in B. caccae relative to Bt if other polysaccharides were also present in the diet. To test this, gnotobiotic mice were co-colonized with Bt and B. caccae and maintained on the standard diet with inulin supplementation in the water (1% w/v). Over the 14 days the mice ingested an average of 117±6 mg of inulin daily via the water (compared to 355±7 mg/day with the inulin diet). Fecal samples were tested by qPCR over the course of the 21-day experiment for relative levels of Bt or B. caccae.
We decided to feed mice a custom diet deficient in all polysaccharides and supplement inulin in the water to determine whether a lower dose of inulin in the absence of other polysaccharides was sufficient to provide B. caccae a competitive advantage over Bt in vivo. Under this experimental paradigm the mice consumed an average of 97 mg of inulin per day. After. 14 days on inulin-water supplementation, the proportion of B. caccae increased by 26±8% (FIG. 6D). […] The wide range of polysaccharides present in the standard diet allows Bt to compete effectively with B. caccae even in the presence of inulin.
(§4) Bacterial colonization and density determination of germ-free mice. Germ-free Swiss-Webster mice were maintained in gnotobiotic isolators and fed an autoclaved standard diet (Purina LabDiet 5K67) or custom diet (Bio-Serv, http://bio-serv.com/), in accordance with A-PLAC, the Stanford IACUC. Mice were bi-associated using oral gavage (10^8 CFU of each bacterial species). Relative densities of bacteria were determined by qPCR using strain-specific primers.

Bt and B. vulgatus = experiment: Dietary inulin in gnotobiotic mice bi-associated with Bt and B. vulgatus, relative fecal proportion by qPCR; format: in vivo, germ-free Swiss-Webster mice
Text: as §3, §4

[3] = molecular target: periplasmic domain of BT1754 (BT1754-PD; residues 29-343) (Bacteroides thetaiotaomicron, UniProt Q8A6X1); experiment: Isothermal calorimetry binding to the periplasmic domain of BT1754
periplasmic domain of BT1754 (BT1754-PD; residues 29-343), sequence (Q8A6X1 entry or part of it, change not shown): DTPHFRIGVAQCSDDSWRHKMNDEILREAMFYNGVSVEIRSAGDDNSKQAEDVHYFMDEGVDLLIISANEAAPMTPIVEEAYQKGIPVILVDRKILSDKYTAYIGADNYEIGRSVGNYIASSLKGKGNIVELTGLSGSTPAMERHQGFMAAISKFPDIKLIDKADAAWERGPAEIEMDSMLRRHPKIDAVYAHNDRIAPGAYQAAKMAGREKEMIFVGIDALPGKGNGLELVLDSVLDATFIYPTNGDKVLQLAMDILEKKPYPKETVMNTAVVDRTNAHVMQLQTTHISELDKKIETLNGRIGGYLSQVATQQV
Text: The periplasmic domain of the hybrid two-component system BT1754 binds to monomeric fructose. One of the key unanswered questions concerning the HTCS family, and many extracellular sensory systems, is the identity of the molecular triggers for signaling events. […] (FIG. 2B). […] As PBPs are known to bind small molecules such as sugars, we expressed the periplasmic domain of BT1754 (BT1754-PD; residues 29-343) in a recombinant form and tested for binding to a range of monosaccharides and fructan-derived oligosaccharides to see if direct interaction with a specific carbohydrate is the means of signal perception in BT1754.
Isothermal titration calorimetry. Measurements were carried out essentially as described previously, except that a Microcal VP-ITC machine was used, and proteins were dialyzed into 20 mM Tris-HCl, pH8.0. The assumption that n=1 for BT1762 binding to levan was based on the structure of the starch binding SusD.

[4] = after two weeks on inulin diet (day 21), n=7 mice

Compound | doubling time [1] [h] | growth of Bt [1] | growth of Bt-ΔBT1754 (Bt-ΔBT1754) | growth [2] | also measured
fructo-oligosaccharides [FOS] | 5.6 | grew on | failed to grow | competent for growth | 
inulin | 96.4 | grew poorly | failed to grow |  | inulin utilization (B. caccae): can utilize; inulin utilization (B. fragilis): can utilize; inulin utilization (B. ovatus): can utilize; inulin utilization (B. uniformis): can utilize; inulin utilization (B. vulgatus): unable to utilize; B. caccae proportion of community (Bt and B. caccae; [4]): 51±6%; Bt proportion of community (Bt and B. caccae; [4]): approximately 49±6%; increase in proportion of B. caccae (Bt and B. caccae; custom diet deficient in all polysaccharides, inulin in the water, 14 days): 26±8%; increase in proportion of B. caccae (Bt and B. caccae; inulin-only diet experiment, day 6 to day 21): 36±7%; B. caccae proportion of community (Bt and B. caccae; six days after change to inulin-based diet (10% w/w)): 20±4%; Bt proportion of community (Bt and B. caccae; six days after change to inulin-based diet (10% w/w, sole polysaccharide), 87±3% before switch): 80±4%; change in relative colonization of Bt and B. caccae versus controls (Bt and B. caccae; standard diet with inulin in the water (1% w/v), 14 days): no statistical difference; change in community composition (Bt and B. vulgatus; after 6 days on inulin-based diet): did not exhibit any significant trend; Bt abundance (Bt and B. vulgatus; day 21, inulin enriched diet, 74±3% on day 6, p=0.1, n=3 mice): 84±5%
levan | 2.7 | grew on | failed to grow |  | 
O=C(CO)[C@@H](O)[C@H](O)[C@H](O)CO [fructose] |  | grew on | retarded growth | competent for growth | Kd [3]: ~2000 nM
OC[C@H]1O[C@@](CO)(O[C@H]2O[C@H](CO)[C@@H](O)[C@H](O)[C@H]2O)[C@@H](O)[C@@H]1O [sucrose] |  | grew on | retarded growth | competent for growth | 
O=C[C@H](O)[C@H](O)[C@H](O)CO [ribose] |  |  |  |  | interaction with BT1754-PD ([3]; isothermal calorimetry): does not interact
